Series [1] deals with T1, GPR39 (Homo sapiens, UniProt O43194).
T1 sequence (O43194 1-453): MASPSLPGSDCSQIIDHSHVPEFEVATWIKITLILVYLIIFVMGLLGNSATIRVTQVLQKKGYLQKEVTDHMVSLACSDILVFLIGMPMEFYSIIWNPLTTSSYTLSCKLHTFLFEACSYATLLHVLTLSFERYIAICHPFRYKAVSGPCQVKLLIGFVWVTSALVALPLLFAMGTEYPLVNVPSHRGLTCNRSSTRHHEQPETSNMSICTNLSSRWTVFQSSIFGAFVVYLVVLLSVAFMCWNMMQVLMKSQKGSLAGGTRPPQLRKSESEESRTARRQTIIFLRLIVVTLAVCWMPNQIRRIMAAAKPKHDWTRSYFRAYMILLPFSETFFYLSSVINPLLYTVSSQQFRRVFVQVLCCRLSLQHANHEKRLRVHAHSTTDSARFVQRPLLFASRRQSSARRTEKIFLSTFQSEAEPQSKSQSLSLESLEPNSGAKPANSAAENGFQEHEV
Method: (§1) Specifically, the fibroblast cell line CV-1 (1×10^5 cells/ml, Korea Cell Line Bank) was cultured in a 96 well cell culture plate for 24 hours, and then treated with GPR39 inserted into adenovirus and SRE (serum response element) luciferase at 50 MOI (multiplicity of infection) and 25 MOI virus for 3 hours, respectively, and then cultured for 24 hours.

Series [2] deals with T1, GPR39. The series is described as follows: luciferase assay system (SRE luciferase reporter gene) for GPR39 in CV-1 cells. As to conditions: for EC50: EC50, CV-1 cells, GPR39 and SRE luciferase adenovirus, treated 6 hours, luminometer; for activity level for GPR39 (in words): comment on Table 3. A general note: Reporter assays use an easily measured gene product as a stand-in for the process of interest.
Method: as §1

Square brackets hold non-standard residues; d marks the D form. Peptide text beside a SMILES is read from it. * marks the point of attachment. His(Trt) = N[C@@H](Cc1cn(C(c2ccccc2)(c2ccccc2)c2ccccc2)cn1)C(=O)O; His(τ-CHPh2) = N[C@@H](Cc1cn(C(c2ccccc2)c2ccccc2)cn1)C(=O)O; Biotin = O=C1N[C@H]2[C@H](CS[C@H]2CCCCC(=O)*)N1; sY = N[C@@H](Cc1ccc(OS(=O)(=O)O)cc1)C(=O)O; Bip = N[C@@H](Cc1ccc(-c2ccccc2)cc1)C(=O)O; Tyr(3-NH2) = Nc1cc(C[C@H](N)C(=O)O)ccc1O; dPhe(4-Me) = Cc1ccc(C[C@@H](N)C(=O)O)cc1; Octanoyl = CCCCCCCC(=O)*

The text below walks through data of patent US20230212222A1 (ANYGEN CO., LTD., priority 2020, published 2023).

A word on the EC50: it is the concentration that produces a half-maximal response. The low end stands for higher potency in that assay, the high end for lower potency in that assay. With `CCCCCCCC(=O)NCCCC[C@H](NC(=O)[C@@H](N)Cc1cn(C(c2ccccc2)c2ccccc2)cn1)C(=O)N[C@H](Cc1ccc(C)cc1)C(=O)N[C@@H](Cc1ccc(OS(=O)(=O)O)cc1)C(=O)O` [HKFY-35, (S)-2-((R)-2-((S)-2-((S)-2-amino-3-(1-benzhydryl-1H-imidazol-4-yl)propanamido)-6-octanamidohexanamido)-3-(p-tolyl)propanamido)-3-(4-(sulfooxy)phenyl)propanoic acid] (H-[His(τ-CHPh2)]K(Octanoyl)[dPhe(4-Me)][sY]-OH), in series [1], the “ECmax (-fold induction over basal)” value is 18.9 ± 0.41 -fold induction over basal. In series [2], this compound registered an EC50 of 280 ± 70 nM.
Regarding `CCCCCCCC(=O)NCCCC[C@H](NC(=O)[C@H](Cc1cn(C(c2ccccc2)(c2ccccc2)c2ccccc2)cn1)NC(=O)[C@H](CO)NC(=O)CN)C(=O)N[C@@H](Cc1ccccc1)C(=O)N[C@@H](Cc1ccc(O)cc1)C(=O)O` [HKFY-37, N2-(Na-glycyl-L-seryl-Nt-trityl-L-histidyl)-N6-octanoyl-L-lysyl-L-phenylalanyl-L-tyrosine] (H-GS[His(Trt)]K(Octanoyl)FY-OH), the “ECmax (-fold induction over basal)” value in series [1] is on record as 16 ± 1.7 -fold induction over basal. Further, the midpoint of the response in series [2], the EC50, lay at 1840 ± 200 nM.
For the compound `CCCCCCCC(=O)NCCCC[C@H](NC(=O)[C@H](Cc1cn(C(c2ccccc2)(c2ccccc2)c2ccccc2)cn1)NC(=O)CCCC[C@@H]1SC[C@@H]2NC(=O)N[C@@H]21)C(=O)N[C@@H](Cc1ccc(-c2ccccc2)cc1)C(=O)N[C@@H](Cc1ccc(O)cc1)C(=O)O` [HKFY-45, ((S)-3-([1,1′-biphenyl]-4-yl)-2-((S)-6-octanamido-2-((S)-2-(5-((3aS,4S,6aR)-2-oxohexahydro-1H-thieno[3,4-d]imidazol-4-yl)pentanamido)-3-(1-trityl-1H-imidazol-4-yl)propanamido)hexanamido)propanoyl)-L-tyrosine] (Biotin-[His(Trt)]K(Octanoyl)[Bip]Y-OH), the “ECmax (-fold induction over basal)” value in series [1] is reported as 21 ± 2.58 -fold induction over basal. Further, in series [2], the response was half-maximal at 140 ± 50 nM (EC50).
For `CCCCCCCC(=O)NCCCC[C@H](NC(=O)[C@@H](N)Cc1cn(C(c2ccccc2)(c2ccccc2)c2ccccc2)cn1)C(=O)N[C@@H](Cc1ccccc1)C(=O)N[C@@H](Cc1c[nH]c2ccccc12)C(=O)O` [HKFY-46, N6-octanoyl-N2-(Nt-trityl-L-histidyl)-L-lysyl-L-phenylalanyl-L-tryptophan] (H-[His(Trt)]K(Octanoyl)FW-OH), the “ECmax (-fold induction over basal)” value in series [1] is listed as 20 ± 0.28 -fold induction over basal. In addition, the concentration for a half-maximal effect (EC50) in series [2] is 260 ± 150 nM.
The corresponding values for `CCCCCCCC(=O)NCCCC[C@H](NC(=O)[C@@H](N)Cc1c[nH]c(-c2ccccc2)n1)C(=O)N[C@H](Cc1ccc(C)cc1)C(=O)N[C@@H](Cc1ccc(O)cc1)C(=O)O` [HKFY-57, ((R)-2-((S)-2-((S)-2-amino-3-(2-phenyl-1H-imidazol-4-yl)propanamido)-6-octanamidohexanamido)-3-(p-tolyl)propanoyl)-L-tyrosine] are 8.5 ± 2.3 -fold induction over basal and 260 ± 10 nM.
Take `CCCCCCCC(=O)NCCCC[C@H](NC(=O)[C@@H](N)Cc1cn(-c2ccccc2)cn1)C(=O)N[C@H](Cc1ccc(C)cc1)C(=O)N[C@@H](Cc1ccc(O)cc1)C(=O)O` [HKFY-58, ((R)-2-((S)-2-((S)-2-amino-3-(1-phenyl-1H-imidazol-4-yl)propanamido)-6-octanamidohexanamido)-3-(p-tolyl)propanoyl)-L-tyrosine]: in series [1], the “ECmax (-fold induction over basal)” value is on record as 9.12 ± 2.1 -fold induction over basal. For the same compound, the half-maximal effective concentration (EC50) in series [2] is 20 ± 2 nM.
The corresponding values for `CCCCCCCC(=O)NCCCC[C@H](NC(=O)[C@@H](N)Cc1cn(-c2ccc(C(C)(C)C)cc2)cn1)C(=O)N[C@H](Cc1ccc(C)cc1)C(=O)N[C@@H](Cc1ccc(O)cc1)C(=O)O` [HKFY-61, ((R)-2-((S)-2-((S)-2-amino-3-(1-(4-(tert-butyl)phenyl)-1H-imidazol-4-yl)propanamido)-6-octanamidohexanamido)-3-(p-tolyl)propanoyl)-L-tyrosine] are 9.88 ± 1.8 -fold induction over basal and 20 ± 3 nM.
With `CCCCCCCC(=O)NCCCC[C@H](NC(=O)[C@@H](N)Cc1c[nH]c(-c2cccs2)n1)C(=O)N[C@H](Cc1ccc(C)cc1)C(=O)N[C@@H](Cc1ccc(O)cc1)C(=O)O` [HKFY-63, ((R)-2-((S)-2-((S)-2-amino-3-(2-(thiophen-2-yl)-1H-imidazol-4-yl)propanamido)-6-octanamidohexanamido)-3-(p-tolyl)propanoyl)-L-tyrosine], in series [1], the “ECmax (-fold induction over basal)” value is 13.5 ± 1.8 -fold induction over basal. Also, the “activity level for GPR39 (in words)” value in series [2] was “higher activity level than other HJKFY derivatives”.
In the case of `CCCCCCCC(=O)NCCCC[C@H](NC(=O)[C@@H](N)Cc1cn(C(c2ccccc2)c2ccc(OC)cc2)cn1)C(=O)N[C@H](Cc1ccc(C)cc1)C(=O)N[C@@H](Cc1ccc(O)cc1)C(=O)O` (stereo partly drawn) [HKFY-64, ((2R)-2-((2S)-2-((2S)-2-amino-3-(1-((4-methoxyphenyl)(phenyl)methyl)-1H-imidazol-4-yl)propanamido)-6-octanamidohexanamido)-3-(p-tolyl)propanoyl)-L-tyrosine], the “ECmax (-fold induction over basal)” value in series [1] is 16 ± 1.5 -fold induction over basal. For the same compound, in series [2], the half-maximal effective concentration (EC50) amounted to 7 ± 1 nM and the “activity level for GPR39 (in words)” value is given as “higher activity level than other HJKFY derivatives”.
For the compound `CCCCCCCC(=O)NCCCC[C@H](NC(=O)[C@@H](N)Cc1cn(C(c2ccccc2)c2ccc(O)cc2)cn1)C(=O)N[C@H](Cc1ccc(C)cc1)C(=O)N[C@@H](Cc1ccc(O)cc1)C(=O)O` (stereo partly drawn) [HKFY-65, ((2R)-2-((2S)-2-((2S)-2-amino-3-(1-((4-hydroxyphenyl)(phenyl)methyl)-1H-imidazol-4-yl)propanamido)-6-octanamidohexanamido)-3-(p-tolyl)propanoyl)-L-tyrosine], the “ECmax (-fold induction over basal)” value in series [1] is given as 18.3 ± 2.2 -fold induction over basal. Further, the “activity level for GPR39 (in words)” value in series [2] is on record as “higher activity level than other HJKFY derivatives”.
For the compound `CCCCCCCC(=O)NCCCC[C@H](NC(=O)[C@@H](N)Cc1cn(C(c2ccccc2)c2ccccc2)cn1)C(=O)N[C@H](Cc1ccc(C)cc1)C(=O)N[C@@H](Cc1ccc(O)cc1)C(N)=O` [HKFY-66, N-((S)-5-((S)-2-amino-3-(1-benzhydryl-1H-imidazol-4-yl)propanamido)-6-(((R)-1-(((S)-1-amino-3-(4-hydroxyphenyl)-1-oxopropan-2-yl)amino)-1-oxo-3-(p-tolyl)propan-2-yl)amino)-6-oxohexyl)octanamide] (H-[His(τ-CHPh2)]K(Octanoyl)[dPhe(4-Me)]Y-NH2), the “ECmax (-fold induction over basal)” value in series [1] is recorded as 20.2 ± 3.5 -fold induction over basal. The EC50 in series [2] is 11 ± 1 nM.
The corresponding values for `CCCCCCCC(=O)NCCCC[C@H](NC(=O)[C@@H](N)Cc1cn(C(c2ccccc2)c2ccccc2)cn1)C(=O)N[C@H](Cc1ccc(C)cc1)C(=O)N[C@@H](Cc1ccc(O)c(N)c1)C(=O)O` [HKFY-70, (S)-2-((R)-2-((S)-2-((S)-2-amino-3-(1-benzhydryl-1H-imidazol-4-yl)propanamido)-6-octanamidohexanamido)-3-(p-tolyl)propanamido)-3-(3-amino-4-hydroxyphenyl)propanoic acid] (H-[His(τ-CHPh2)]K(Octanoyl)[dPhe(4-Me)][Tyr(3-NH2)]-OH) are 10.1 ± 1.6 -fold induction over basal and 20 ± 1 nM.
